From BindingDB's records for doi:10.1016/s0167-0115(98)00049-4 (Uppsala University, 1998) come the findings set out here.

Non-standard residues stand in square brackets, D forms with d. Residues, ends and D or L forms follow the SMILES beside them. Ahx = NCCCCCC(=O)O

In this experiment the target is T1, Neuropeptide Y receptor type 2 (Cavia porcellus, UniProt Q9Z2D5).
T1 sequence (Q9Z2D5 whole entry): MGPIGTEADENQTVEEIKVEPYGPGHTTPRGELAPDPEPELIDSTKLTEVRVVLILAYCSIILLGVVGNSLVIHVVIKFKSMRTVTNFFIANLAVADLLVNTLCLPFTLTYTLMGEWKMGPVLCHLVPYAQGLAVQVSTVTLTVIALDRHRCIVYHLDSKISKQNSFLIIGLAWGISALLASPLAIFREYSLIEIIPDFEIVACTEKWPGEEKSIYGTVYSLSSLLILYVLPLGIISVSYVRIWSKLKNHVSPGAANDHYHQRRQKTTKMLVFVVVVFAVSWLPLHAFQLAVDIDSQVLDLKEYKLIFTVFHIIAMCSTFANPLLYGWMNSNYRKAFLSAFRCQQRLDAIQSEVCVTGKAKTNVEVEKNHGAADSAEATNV
Regarding `CC[C@H](C)[C@H](NC(=O)[C@H](Cc1ccc(O)cc1)NC(=O)[C@H](Cc1cnc[nH]1)NC(=O)[C@H](CCCNC(=N)N)NC(=O)CCCCCNC(=O)[C@H](CCCCN)NC(=O)[C@H](CO)NC(=O)[C@@H]1CCCN1C(=O)[C@@H](N)Cc1ccc(O)cc1)C(=O)N[C@@H](CC(N)=O)C(=O)N[C@@H](CC(C)C)C(=O)N[C@H](C(=O)N[C@H](C(=O)N[C@@H](CCCNC(=N)N)C(=O)N[C@@H](CCC(N)=O)C(=O)N[C@@H](CCCNC(=N)N)C(=O)N[C@@H](Cc1ccc(O)cc1)C(N)=O)[C@@H](C)O)[C@@H](C)CC` [NPY5-24, Ahx] (H-YPSK[Ahx]RHYINLITRQRY-NH2), the Ki turned out to be 0.181 nM.
The result for “H-INPIYRLRY-NH2 [NPY 28-36, [P30, Y32, L34]]” reads 295 nM; that for `CC[C@H](C)[C@H](NC(=O)[C@H](Cc1ccc(O)cc1)NC(=O)[C@H](Cc1c[nH]cn1)NC(=O)[C@H](CCCNC(=N)N)NC(=O)[C@H](CC(C)C)NC(=O)[C@H](C)NC(=O)[C@H](CO)NC(=O)[C@H](Cc1ccc(O)cc1)NC(=O)CCCCCNC(=O)[C@H](CC(N)=O)NC(=O)[C@H](CC(=O)O)NC(=O)[C@@H]1CCCN1C(=O)[C@H](CCCCN)NC(=O)[C@H](CO)NC(=O)[C@@H]1CCCN1C(=O)[C@@H](N)Cc1ccc(O)cc1)C(=O)N[C@@H](CC(N)=O)C(=O)N[C@@H](CC(C)C)C(=O)N[C@H](C(=O)N[C@H](C(=O)N[C@@H](CCCNC(=N)N)C(=O)N[C@@H](CCC(N)=O)C(=O)N[C@@H](CCCNC(=N)N)C(=O)N[C@@H](Cc1ccc(O)cc1)C(N)=O)[C@@H](C)O)[C@@H](C)CC` [NPY8-20, Ahx] (H-YPSKPDN[Ahx]YSALRHYINLITRQRY-NH2), 0.117 nM; that for `CC[C@H](C)[C@H](NC(=O)[C@H](Cc1ccc(O)cc1)NC(=O)[C@H](Cc1cnc[nH]1)NC(=O)[C@H](CCCN=C(N)N)NC(=O)[C@H](CC(C)C)NC(=O)[C@H](C)NC(=O)[C@@H](N)CO)C(=O)N[C@@H](CC(N)=O)C(=O)N[C@@H](CC(C)C)C(=O)N[C@H](C(=O)N[C@H](C(=O)N[C@@H](CCCN=C(N)N)C(=O)N[C@@H](CCC(N)=O)C(=O)N[C@@H](CCCN=C(N)N)C(=O)N[C@@H](Cc1ccc(O)cc1)C(N)=O)[C@@H](C)O)[C@@H](C)CC` [NPY22-36, rat, human], 0.136 nM.
In the case of “H-APLEPEYPGDNATPEQMAQYAAELRRYINMLTRPRY-NH2 [CAS_59763-91-6]” it was 1000 nM.
`CC[C@H](C)[C@H](NC(=O)[C@H](Cc1ccc(O)cc1)NC(=O)[C@H](Cc1cnc[nH]1)NC(=O)[C@H](CCCNC(=N)N)NC(=O)[C@H](CC(C)C)NC(=O)[C@H](C)NC(=O)[C@H](CO)NC(=O)[C@H](Cc1ccc(O)cc1)NC(=O)CCCCCNC(=O)[C@H](CC(N)=O)NC(=O)[C@H](CC(=O)O)NC(=O)[C@@H]1CCCN1C(=O)[C@H](CCCCN)NC(=O)[C@H](CO)NC(=O)[C@@H]1CCCN1C(=O)[C@@H](N)Cc1ccc(O)cc1)C(=O)N[C@@H](CC(N)=O)C(=O)N[C@@H](CC(C)C)C(=O)N[C@H](C(=O)N[C@H](C(=O)N[C@@H](CCCNC(=N)N)C(=O)N1CCC[C@H]1C(=O)N[C@@H](CCCNC(=N)N)C(=O)N[C@@H](Cc1ccc(O)cc1)C(N)=O)[C@@H](C)O)[C@@H](C)CC` [NPY8-20, Pro34, Ahx] (H-YPSKPDN[Ahx]YSALRHYINLITRPRY-NH2): the affinity corresponds to a Ki of 85.3 nM.

One may read the Ki as a measure of affinity in units of concentration, obtained from inhibition or displacement. Lower therefore signals higher affinity.
